Test results from ChEMBL document CHEMBL6134907, “Synthesis of 5,9- and 5,8-Diaminoalkoxy Substituted Benzophenanthridinone Analogues as Tyrosyl-DNA Phosphodiesterase 1 Inhibitors and Their Radiosensitizing Activity” (J Med Chem, 2025).
Calls of active or inactive are those of the source. The rule behind the calls is not given here.

Columns and labels:
[1] = test system: HCT-116; assay: Effect on Ku70/80 expression in wild type human HCT-116 cells assessed as change in protein level at 5 to 10 uM radiated with 4 GY ionizing radiation (IR) measured after 24 hrs by Western blot analysis; assay type: functional, cell-based; conditions: dose 5-10 µM
[2] = Induction of 4GY ionizing radiation (IR) induced cell cycle arrest in human HCT-116 cells assessed as accumulation of cells at G2/M phase at 5 uM measured after 24 hrs by Propidium iodide (PI) staining based assay (reference value: 20.51%); assay type: functional
[3] = test system: HCT-116; assay: Induction of apoptosis in human HCT-116 cells assessed as induction of 4GY ionizing radiation (IR) induced cleaved Caspase-7 at 5 uM measured after 24 hrs by Western blot analysis; assay type: functional, cell-based
[4] = test system: HCT-116; assay: Reduction in recruitment of XRCC4 at damage site of human HCT-116 cells at 5 uM radiated with 4 GY ionizing radiation (IR) measured after 3 hrs by fluorescence colocalization assay; assay type: functional, cell-based
[5] = test system: HCT-116; assay: Anti-tumor activity against human HCT-116 cells xenografted in BALB/c mouse assessed as tumor growth inhibition at 1 mg/kg, ip every day for 14 days; assay type: functional, organism-based; conditions: time 14.0 day
[6] = target: Tyrosyl-DNA phosphodiesterase 1 (Homo sapiens, UniProt Q9NUW8); assay: Binding affinity to TDP1 in human HCT-116 cells assessed as increase in thermal stability by Cellular Thermal Shift Assay (CETSA); assay type: cell-based
Chain of Tyrosyl-DNA phosphodiesterase 1 (Q9NUW8 whole entry): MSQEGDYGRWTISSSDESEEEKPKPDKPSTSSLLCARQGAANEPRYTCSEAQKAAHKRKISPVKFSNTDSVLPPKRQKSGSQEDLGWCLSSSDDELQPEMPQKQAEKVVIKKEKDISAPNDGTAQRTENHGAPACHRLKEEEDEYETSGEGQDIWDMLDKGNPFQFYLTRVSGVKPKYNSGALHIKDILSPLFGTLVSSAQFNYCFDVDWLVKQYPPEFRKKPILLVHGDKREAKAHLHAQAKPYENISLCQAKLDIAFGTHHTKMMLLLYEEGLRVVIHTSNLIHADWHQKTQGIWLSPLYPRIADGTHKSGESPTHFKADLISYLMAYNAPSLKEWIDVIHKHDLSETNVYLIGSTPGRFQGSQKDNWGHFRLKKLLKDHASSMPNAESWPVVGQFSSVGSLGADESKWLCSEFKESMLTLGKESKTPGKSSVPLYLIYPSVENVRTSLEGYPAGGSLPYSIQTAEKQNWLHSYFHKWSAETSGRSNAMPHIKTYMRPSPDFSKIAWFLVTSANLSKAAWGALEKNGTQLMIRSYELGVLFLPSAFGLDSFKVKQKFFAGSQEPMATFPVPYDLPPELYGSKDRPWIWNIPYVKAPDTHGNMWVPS

[7] = test system: HCT-116; assay: Cytotoxicity against human HCT116 cells assessed as cell killing at 0.5 uM relative to control; assay type: functional
[8] = Induction of 4GY ionizing radiation (IR) induced cell cycle arrest in human HCT-116 cells assessed as accumulation of cells at G2/M phase at 10 uM measured after 24 hrs by Propidium iodide (PI) staining based assay (reference value: 20.51%); assay type: functional
[9] = test system: HCT-116; assay: Induction of apoptosis in human HCT-116 cells assessed as late apoptotic cells at 5 uM measured after 24 hrs by FITC Annexin V/PI apoptosis detection assay (reference value: 0%); assay type: functional
[10] = test system: HCT-116; assay: Induction of 4GY ionizing radiation (IR) induced ROS production in human HCT-116 cells assessed as mitochondrial dysfunction by measuring mitochondrial membrane potential loss at 10 uM measured after 24 hrs by flow cytometry; assay type: functional, cell-based
[11] = Toxicity in BALB/c mouse xenografted with human HCT-116 cells assessed as change in kidney weight at 1 to 10 mg/kg, ip every day for 14 days radiated for every 2 days once; assay type: organism-based; conditions: in vivo, 336 h, dose 1-10 mg/kg, time 14 day
[12] = test system: HCT-116; assay: Induction of PIG3 expression in human HCT-116 cells xenografted BALB/c mouse tumor at 5 to 10 mg/kg, ip every day for 14 days by immunohistochemical analysis; assay type: functional, organism-based; conditions: dose 5-10 mg/kg, time 14.0 day
[13] = test system: HCT-116; assay: Induction of gamma-H2AX level in human HCT-116 cells at 5 uM measured after 3 hrs by Western blot analysis; assay type: functional, cell-based
[14] = test system: HCT-116; assay: Induction of 4GY ionizing radiation (IR) induced apoptosis in human HCT-116 cells assessed as early apoptotic cells at 5 uM measured after 24 hrs by FITC Annexin V/PI apoptosis detection assay (reference value: 17.50%); assay type: functional
[15] = test system: HCT-116; assay: Induction of PIG3 transcription level in human HCT-116 cells measured after 24 hrs; assay type: functional, cell-based
[16] = Toxicity in BALB/c mouse xenografted with human HCT-116 cells assessed as change in body weight at 10 mg/kg, ip every day for 14 days; assay type: organism-based; conditions: in vivo, 336 h, time 14 day
[17] = test system: HGC-27; assay: Radiosensitizing activity in human HGC-27 cells assessed as sensitization of 2 GY ionizing radiation induced decrease in cell survival by colony formation assay; assay type: functional, cell-based
[18] = test system: HCT-116; assay: Induction of apoptosis in human HCT-116 cells assessed as induction of 4GY ionizing radiation (IR) induced cleaved Caspase-9 at 5 uM measured after 24 hrs by Western blot analysis; assay type: functional, cell-based
[19] = test system: HCT-116; assay: In vivo radiosensitizing activity in human HCT-116 cells xenografted in BALB/c mouse assessed as sensitization of 1 GY ionizing radiation induced reduction in tumor weight at 10 mg/kg, ip every day for 14 days radiated for every 2 days once (reference value: 35%); assay type: functional; design: scale not given: the % may be the effect or the level left; conditions: time 14 day
[20] = test system: HCT-116; assay: Induction of apoptosis in human HCT-116 cells assessed as early apoptotic cells at 10 uM measured after 24 hrs by FITC Annexin V/PI apoptosis detection assay (reference value: 0.26%); assay type: functional
[21] = test system: HeLa; assay: Radiosensitizing activity in human HeLa cells assessed as sensitization of 2 GY ionizing radiation induced decrease in cell survival by colony formation assay; assay type: functional, cell-based
[22] = test system: HCT-116; assay: Induction of cell cycle arrest in human HCT-116 cells assessed as accumulation of cells at S phase at 5 uM measured after 24 hrs by Propidium iodide (PI) staining based assay (reference value: 13.96%); assay type: functional
[23] = test system: HCT-116; assay: Effect on Ku70/80 expression in wild type human HCT-116 cells assessed as change in mRNA level at 5 to 10 uM measured after 24 hrs by qRT-PCR analysis; assay type: functional, cell-based; conditions: dose 5-10 µM
[24] = MRT infinity in male Sprague-Dawley rat at 1 mg/kg, iv measured up to 24 hrs by LCMS-MS analysis; assay type: ADME, organism-based; conditions: in vivo
[25] = test system: HCT-116; assay: Upregulation of p53 signaling pathway in human HCT-116 cells at 5 uM measured after 24 hrs by KEGG analysis; assay type: functional, cell-based
[26] = Toxicity in BALB/c mouse xenografted with human HCT-116 cells assessed as change in heart weight at 1 to 10 mg/kg, ip every day for 14 days; assay type: organism-based; conditions: in vivo, 336 h, dose 1-10 mg/kg, time 14 day
[27] = Tmax in male Sprague-Dawley rat at 5 mg/kg, IG measured up to 24 hrs by LCMS-MS analysis; assay type: ADME, organism-based; conditions: in vivo, po
[28] = test system: HCT-116; assay: Synergistic cytotoxicity against human SgTDP1-HCT-116 cells (TDP1 knockout) assessed as combination index at 0.5 uM incubated for 48 hrs in presence of 2GY ionizing radiation; assay type: functional
[29] = test system: HCT-116; assay: Reduction of XRCC4 expression in wild type human HCT-116 cells assessed as reduction in mRNA level at 5 to 10 uM radiated with 4 GY ionizing radiation (IR) measured after 24 hrs by qRT-PCR analysis; assay type: functional, cell-based; conditions: dose 5-10 µM
[30] = test system: HCT-116; assay: Induction of apoptosis in human HCT-116 cells assessed as early apoptotic cells at 5 uM measured after 24 hrs by FITC Annexin V/PI apoptosis detection assay (reference value: 0.26%); assay type: functional
[31] = Toxicity in BALB/c mouse xenografted with human HCT-116 cells assessed as change in lung weight at 1 to 10 mg/kg, ip every day for 14 days; assay type: organism-based; conditions: in vivo, 336 h, dose 1-10 mg/kg, time 14 day
[32] = test system: HCT-116; assay: Downregulation of cell cycle pathway in human HCT-116 cells at 5 uM measured after 24 hrs by KEGG analysis; assay type: functional, cell-based
[33] = test system: HCT-116; assay: Synergistic cytotoxicity against human HCT116 cells assessed as combination index at 5 uM incubated for 48 hrs in presence of 2GY ionizing radiation (IR); assay type: functional
[34] = Toxicity in BALB/c mouse xenografted with human HCT-116 cells assessed as change in body weight at 1 mg/kg, ip every day for 14 days; assay type: organism-based; conditions: in vivo, 336 h, time 14 day

For `COc1cc2c(=O)n(CCN(C)C)c3c4cc5c(cc4ccc3c2cc1OCCN1CCOCC1)OCO5`, the Activity [1] was “inactive”, the Activity [2] was 43.13% and the Activity [3] was “Active”. For the same compound, the Activity [4] was “Active”, the TGI [5] was “inactive” and the Activity [6] was “Active; Thermal Melting Curve Of Tdp1 Protein Shifted Left”. For the same compound, the Activity [7] was 11%, the Activity [8] was 68.1% and the Activity [9] was 5.99%. The Activity [10] was “Active”, the Activity [11] was “Non-toxic” and the Activity [12] was “Active”. The Activity [13] was “Active”, the Activity [14] was 19.39% and the Activity [15] was “Dose-dependent-effect”. For the same compound, the Activity [16] was “Non-toxic”, the Activity [17] was “inactive” and the Activity [18] was “Active”. For the same compound, the Activity [19] was 77%, the Activity [20] was 13.24% and the Activity [21] was “inactive”. The Activity [22] was 10.9%, the Activity [23] was “inactive” and the MRT inf [24] was 3.33 h. The Activity [25] was “Active”, the Activity [26] was “Non-toxic” and the Tmax [27] was 4 h. The CI [28] was 0.94, the Activity [29] was “Active” and the Activity [30] was 14.89%. The Activity [31] was “Non-toxic”, the Activity [32] was “Active” and the CI [33] was under 0.3. For the same compound, the Activity [34] was “Non-toxic”.
